The text below walks through data of US5085989A, “Method and reagent for quantitative analysis of 3-oxo-5β-steroid” (Daiichi Pure Chemicals Co., Ltd., priority 1986, dated 1992).

Read-outs that look alike come from different tables or passages of the source.

The series can be described thus: Dehydrochoric acid level in serum after intravenous administration (loading test). The following applies: human, 1000 mg, 1g intravenously; for AUC: read-out: area under concentration curve of the compound in blood (AUC) (converted); for k el: read-out: elimination constant (Kel) (converted). The series is classed as in vivo, human (liver cirrhosis patient and healthy subject). The procedure:
A liver cirrhosis patient and a healthy subject were each intravenously given 1g of dehydrochoric acid. The changes of the dehydrochoric acid level in serum after the administration were determined according to the same procedure as in Example 1 and using the reagent of Example 1. The results are shown in the appended FIG. 1. The elimination constant (keλ), the half-life period (T 1/2) and the area under concentration curve of the compound in blood (AUC) are given in Table 3.

Consider `C[C@H](CCC(=O)O)[C@H]1CC[C@H]2[C@@H]3C(=O)C[C@@H]4CC(=O)CC[C@]4(C)[C@H]3CC(=O)[C@]12C` [Dehydrochoric Acid, dehydrochoric acid], for which, under “healthy subject”, the AUC is 45400 ng·h/mL and the k el was 0.00118 s⁻¹. Moreover, for the setting “liver cirrhosis patient”, the AUC is 23300 ng·h/mL and the k el is 0.00262 s⁻¹.
